Target: Human complement C1s enzyme (Homo sapiens (Human), UniProt P09871)
Assay: Human C1s enzyme assay
Format: biochemical
Conditions: Human C1s enzyme assay of Example 3; read-out: IC50 (Stars)
How it was run: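 IC50 derived by nonlinear regression of rate versus concentration, with rate taken from A405 kinetics (30 s intervals, 30 min) after adding 100 μM each Z-L-Lys-SBzl and DTNB. C1s from human serum, 1.16 nM, exposed to compound for 5 min at RT beforehand; buffer 50 mM Tris, 1 M NaCl, pH 7.5.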

Chain of Human complement C1s enzyme (P09871 438-688 limits assumed): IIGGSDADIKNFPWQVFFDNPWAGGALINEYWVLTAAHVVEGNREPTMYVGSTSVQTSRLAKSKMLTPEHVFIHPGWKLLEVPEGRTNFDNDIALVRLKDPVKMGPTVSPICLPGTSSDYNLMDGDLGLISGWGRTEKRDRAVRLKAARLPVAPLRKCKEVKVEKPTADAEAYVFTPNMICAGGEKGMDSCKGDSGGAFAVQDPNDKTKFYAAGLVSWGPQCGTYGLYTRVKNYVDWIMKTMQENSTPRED
Chain of Human complement C1s enzyme (P09871 16-437 partner limits assumed): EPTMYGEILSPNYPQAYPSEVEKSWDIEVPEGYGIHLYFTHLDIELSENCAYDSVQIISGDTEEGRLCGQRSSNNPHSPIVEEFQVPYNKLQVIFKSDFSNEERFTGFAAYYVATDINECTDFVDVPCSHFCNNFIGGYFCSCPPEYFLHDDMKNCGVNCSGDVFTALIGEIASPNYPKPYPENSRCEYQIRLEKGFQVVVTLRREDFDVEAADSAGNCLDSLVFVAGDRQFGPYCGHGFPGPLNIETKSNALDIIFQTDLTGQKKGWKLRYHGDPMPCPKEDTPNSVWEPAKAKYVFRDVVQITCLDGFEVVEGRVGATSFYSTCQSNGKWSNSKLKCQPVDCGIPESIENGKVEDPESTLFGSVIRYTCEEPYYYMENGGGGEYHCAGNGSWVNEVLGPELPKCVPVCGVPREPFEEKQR

| SMILES | IC50 [µM] |
| --- | --- |
| N=C(N)c1csc(CNC(=O)[C@@H]2CC3(CN2C(=O)CNC(=O)c2ccc(-c4ccccc4)c(F)c2)OCCO3)c1 [Compound 141, (S)—N-((4-carbamimidoylthiophen-2-yl)methyl)-7-((2-fluoro-[1,1′-biphenyl]-4-carbonyl)glycyl)-1,4-dioxa-7-azaspiro[4.4]nonane-8-carboxamide] | < 0.1 |
| C[C@@H](NC(=O)[C@@H]1CC2(CN1C(=O)CNC(=O)c1ccc3c(c1)-c1ccccc1C3(F)F)OCCO2)c1cc(-c2cnc(N)nc2)cs1 [Compound 100, (S)—N—((R)-1-(4-(2-aminopyrimidin-5-yl)thiophen-2-yl)ethyl)-7-((9,9-difluoro-9H-fluorene-3-carbonyl)glycyl)-1,4-dioxa-7-azaspiro[4.4]nonane-8-carboxamide] | > 1 |
| C[C@@H](NC(=O)[C@@H]1C[C@@H](S(C)(=O)=O)CN1C(=O)CNC(=O)c1ccc(C(F)(F)c2ccccc2)cc1)c1cc(C(=N)N)cs1 [Compound 168, (2S,4R)—N—((R)-1-(4-carbamimidoylthiophen-2-yl)ethyl)-1-((4-(difluoro(phenyl)methyl)benzoyl)glycyl)-4-(methylsulfonyl)pyrrolidine-2-carboxamide] | < 0.1 |
| C[C@@H](NC(=O)[C@@H]1CC2(CN1C(=O)CNC(=O)c1ccc(-c3ccc(F)cc3Cl)cc1)OCCO2)c1cc(C(=N)N)cs1 [Compound 176, (S)—N—((R)-1-(4-carbamimidoylthiophen-2-yl)ethyl)-7-((2′-chloro-4′-fluoro-[1,1′-biphenyl]-4-carbonyl)glycyl)-1,4-dioxa-7-azaspiro[4.4]nonane-8-carboxamide] | < 0.1 |
| Cc1ccc(-c2ccc(C(=O)NCC(=O)N3CC4(C[C@H]3C(=O)NCc3cc(C(=N)N)cs3)OCCO4)cc2)cc1 [Compound 108, (S)—N-((4-carbamimidoylthiophen-2-yl)methyl)-7-((4′-methyl-[1,1′-biphenyl]-4-carbonyl)glycyl)-1,4-dioxa-7-azaspiro[4.4]nonane-8-carboxamide] | < 0.1 |
| C[C@@H](NC(=O)[C@@H]1C[C@]2(C)C[C@@H]2N1C(=O)CNC(=O)c1ccc2c(c1)-c1ccccc1C2(F)F)c1cc(C(=N)N)cs1 [Compound 4, (1S,3S,5S)—N—((R)-1-(4-carbamimidoylthiophen-2-yl)ethyl)-2-((9,9-difluoro-9H-fluorene-3-carbonyl)glycyl)-5-methyl-2-azabicyclo[3.1.0]hexane-3-carboxamide] | < 0.1 |
| CC(NC(=O)[C@@H]1CC2(CN1C(=O)CNC(=O)c1ccc(-c3ccccc3)cn1)OCCO2)c1cc(C(=N)N)cs1 (stereo in doubt) [Compound 167, (S)—N—((S)-1-(4-carbamimidoylthiophen-2-yl)ethyl)-7-((5-phenylpicolinoyl)glycyl)-1,4-dioxa-7-azaspiro[4.4]nonane-8-carboxamide] | < 0.1 |
| COC[C@@]12C[C@@H]1N(C(=O)CNC(=O)c1ccc3c(c1)-c1ccccc1C3(F)F)[C@H](C(=O)N[C@H](C)c1cc(C(=N)N)cs1)C2 [Compound 72, (1S,3S,5R)—N—((R)-1-(4-carbamimidoylthiophen-2-yl)ethyl)-2-((9,9-difluoro-9H-fluorene-3-carbonyl)glycyl)-5-(methoxymethyl)-2-azabicyclo[3.1.0]hexane-3-carboxamide] | < 0.1 |
| C[C@@H](NC(=O)[C@@H]1CC2(CN1C(=O)CNC(=O)c1cccc(-c3ccccc3)c1)OCCO2)c1cc(C(=N)N)cs1 [Compound 109, (S)-7-(([1,1′-biphenyl]-3-carbonyl)glycyl)-N—((R)-1-(4-carbamimidoylthiophen-2-yl)ethyl)-1,4-dioxa-7-azaspiro[4.4]nonane-8-carboxamide] | < 0.1 |

Same assay, conditions: Human complement C1s enzyme 1.16 nM, substrate Z-L-Lys-SBzl 100 μM, assay of Example 3; read-out: IC50 (Stars)

| SMILES | IC50 [µM] |
| --- | --- |
| C[C@@]12C[C@@H]1N(C(=O)CNC(=O)c1ccc(Oc3ccccc3)cc1)[C@H](C(=O)NCc1cccc(Cl)c1Cl)C2 [Compound 387, (1S,3S,5S)—N-(2,3-dichlorobenzyl)-5-methyl-2-((4-phenoxybenzoyl)glycyl)-2-azabicyclo[3.1.0]hexane-3-carboxamide] | > 1 |
| O=C(NCC(=O)N1CC2(C[C@H]1C(=O)NCc1ccn[nH]1)OCCO2)c1ccc(Oc2ccccc2)cc1 [Compound 384, (S)-N-((1H-pyrazol-5-yl)methyl)-7-((4-phenoxybenzoyl)glycyl)-1,4-dioxa-7-azaspiro[4.4]nonane-8-carboxamide] | > 1 |
| COc1cccc(F)c1-c1ccc(C(=O)NCC(=O)N2CC3(C[C@H]2C(=O)NCc2cc(C(=N)N)cs2)OCCO3)cc1 [Compound 241, (S)—N-((4-carbamimidoylthiophen-2-yl)methyl)-7-((2′-fluoro-6′-methoxy-[1,1′-biphenyl]-4-carbonyl)glycyl)-1,4-dioxa-7-azaspiro[4.4]nonane-8-carboxamide] | < 0.1 |
| C[C@@H](NC(=O)[C@@H]1C[C@@H](S(C)(=O)=O)CN1C(=O)CNC(=O)c1ccc2[nH]c3ccccc3c2c1)c1cc(C(=N)N)cs1 [Compound 340, N-(2-((2S,4R)-2-(((R)-1-(4-carbamimidoylthiophen-2-yl)ethyl)carbamoyl)-4-(methylsulfonyl)pyrrolidin-1-yl)-2-oxoethyl)-9H-carbazole-3-carboxamide] | < 0.1 |
| C[C@@H](NC(=O)c1ccc(-c2ccc(F)cc2F)cc1)C(=O)N1CC2(C[C@H]1C(=O)NCc1cc(C(=N)N)cs1)OCCO2 [Compound 301, (S)—N-((4-carbamimidoylthiophen-2-yl)methyl)-7-((2′,4′-difluoro-[1,1′-biphenyl]-4-carbonyl)-D-alanyl)-1,4-dioxa-7-azaspiro[4.4]nonane-8-carboxamide] | < 0.1 |
| C[C@@H](NC(=O)[C@@H]1C[C@@H](OC(F)F)CN1C(=O)CNC(=O)c1ccc2sc3ccccc3c2c1)c1cc(C(=N)N)cs1 [Compound 353, (2S,4R)—N—((R)-1-(4-carbamimidoylthiophen-2-yl)ethyl)-1-((dibenzo[b,d]thiophene-2-carbonyl)glycyl)-4-(difluoromethoxy)pyrrolidine-2-carboxamide] | < 0.1 |
| C[C@@H](NC(=O)[C@@H]1C[C@@H](OC(F)F)CN1C(=O)CNC(=O)c1ccc2c(c1)C(F)(F)c1ccccc1-2)c1cc(C(=N)N)cs1 [Compound 262, (2S,4R)—N—((R)-1-(4-carbamimidoylthiophen-2-yl)ethyl)-1-((9,9-difluoro-9H-fluorene-2-carbonyl)glycyl)-4-(difluoromethoxy)pyrrolidine-2-carboxamide] | < 0.1 |
| C[C@@H](NC(=O)[C@@H]1C[C@@H](OC(F)F)CN1C(=O)CNC(=O)c1ccc2c(c1)oc1ccccc12)c1cc(C(=N)N)cs1 [Compound 361, (2S,4R)—N—((R)-1-(4-carbamimidoylthiophen-2-yl)ethyl)-1-((dibenzo[b,d]furan-3-carbonyl)glycyl)-4-(difluoromethoxy)pyrrolidine-2-carboxamide] | < 0.1 |
| C[C@@H](NC(=O)[C@@H]1C[C@H](CO)CN1C(=O)CNC(=O)c1ccc2c(c1)-c1ccccc1C2(F)F)c1cc(C(=N)N)cs1 (relative stereo) [Compound 306, (2S,4S*)—N—((R)-1-(4-carbamimidoylthiophen-2-yl)ethyl)-1-((9,9-difluoro-9H-fluorene-3-carbonyl)glycyl)-4-(hydroxymethyl)pyrrolidine-2-carboxamide] | < 0.1 |
| C[C@@H](NC(=O)[C@@H]1CC2(CN1C(=O)CNC(=O)c1ccc3c(c1)-c1ccccc1C3(F)F)OCCO2)c1cc(C(N)=O)cs1 [Compound 200, (S)—N—((R)-1-(4-carbamoylthiophen-2-yl)ethyl)-7-((9,9-difluoro-9H-fluorene-3-carbonyl)glycyl)-1,4-dioxa-7-azaspiro[4.4]nonane-8-carboxamide] | > 1 |
| C[C@@H](NC(=O)[C@@H]1C[C@H](c2cccnc2)CN1C(=O)CNC(=O)c1ccc2c(c1)-c1ccccc1C2(F)F)c1cc(C(=N)N)cs1 [Compound 355, (2S,4R)—N—((R)-1-(4-carbamimidoylthiophen-2-yl)ethyl)-1-((9,9-difluoro-9H-fluorene-3-carbonyl)glycyl)-4-(pyridin-3-yl)pyrrolidine-2-carboxamide] | < 0.1 |
| COC[C@@]1(F)C[C@@H](C(=O)N[C@H](C)c2cc(C(=N)N)cs2)N(C(=O)CNC(=O)c2ccc3c(c2)sc2ccccc23)C1 [Compound 343, (2S,4R)—N—((R)-1-(4-carbamimidoylthiophen-2-yl)ethyl)-1-((dibenzo[b,d]thiophene-3-carbonyl)glycyl)-4-fluoro-4-(methoxymethyl)pyrrolidine-2-carboxamide] | < 0.1 |
| C[C@@H](NC(=O)[C@@H]1CC2(CN1C(=O)Cc1ccc(-c3ccc(F)cc3F)cc1)OCCO2)c1cc(C(=N)N)cs1 [Compound 321, (S)—N—((R)-1-(4-carbamimidoylthiophen-2-yl)ethyl)-7-(2-(2′,4′-difluoro-[1,1′-biphenyl]-4-yl)acetyl)-1,4-dioxa-7-azaspiro[4.4]nonane-8-carboxamide] | < 0.1 |
| C[C@@H](NC(=O)[C@@H]1C[C@H](c2ccncc2)CN1C(=O)CNC(=O)c1ccc2c(c1)-c1ccccc1C2(F)F)c1cc(C(=N)N)cs1 [Compound 370, (2S,4R)—N—((R)-1-(4-carbamimidoylthiophen-2-yl)ethyl)-1-((9,9-difluoro-9H-fluorene-3-carbonyl)glycyl)-4-(pyridin-4-yl)pyrrolidine-2-carboxamide] | < 0.1 |

Same assay, conditions: Human complement C1s enzyme 1.16 nM, substrate Z-L-Lys-SBzl; assay of Example 3; read-out: IC50 (Stars)

| SMILES | IC50 [µM] |
| --- | --- |
| N=C(N)c1csc([C@@H](CO)NC(=O)[C@@H]2C[C@](F)(CF)CN2C(=O)CNC(=O)c2ccc3c(c2)C(F)(F)c2ccccc2-3)c1 [Compound 405, (2S,4R)—N—((R)-1-(4-carbamimidoylthiophen-2-yl)-2-hydroxyethyl)-1-((9,9-difluoro-9H-fluorene-2-carbonyl)glycyl)-4-fluoro-4-(fluoromethyl)pyrrolidine-2-carboxamide] | < 0.1 |

From patent US20250346585A1 (Alexion Pharmaceuticals, Inc., priority 2022, published 2025)
